pIC50: −log10 of the molar value.
biological target: T1, human SGLT1 (Homo sapiens, UniProt P13866); assay: Inhibitory activity against methyl-α-D-glucopyranoside uptake, CHO cells stably expressing human SGLT1; assay type: cell-based; conditions: Table 2-2; read-out: hSGLT1 IC50 value
T1 construct: expressed in transfected cells; host or cells: CHO-K1
T1 sequence (P13866 1-664): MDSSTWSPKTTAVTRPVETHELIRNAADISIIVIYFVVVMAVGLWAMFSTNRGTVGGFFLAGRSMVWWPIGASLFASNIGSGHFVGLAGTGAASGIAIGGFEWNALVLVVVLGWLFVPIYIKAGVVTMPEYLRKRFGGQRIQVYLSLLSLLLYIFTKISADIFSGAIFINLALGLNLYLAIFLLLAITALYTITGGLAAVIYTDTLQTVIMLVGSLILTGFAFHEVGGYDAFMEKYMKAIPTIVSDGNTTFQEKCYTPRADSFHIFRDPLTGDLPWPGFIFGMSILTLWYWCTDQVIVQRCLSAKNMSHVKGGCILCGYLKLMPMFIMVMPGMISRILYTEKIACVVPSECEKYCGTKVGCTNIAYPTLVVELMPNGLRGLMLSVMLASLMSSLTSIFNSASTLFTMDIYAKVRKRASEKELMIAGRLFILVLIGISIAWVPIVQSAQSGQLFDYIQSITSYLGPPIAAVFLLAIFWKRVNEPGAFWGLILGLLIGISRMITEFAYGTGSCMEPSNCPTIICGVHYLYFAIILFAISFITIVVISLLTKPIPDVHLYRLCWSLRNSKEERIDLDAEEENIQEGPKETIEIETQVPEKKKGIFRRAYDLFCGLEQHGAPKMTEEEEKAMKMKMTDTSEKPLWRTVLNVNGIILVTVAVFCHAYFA
Description: Evaluation of inhibitory activity against methyl-α-D-glucopyranoside uptake of human Na^+-glucose cotransporter (SGLT1 and SGLT2)
1) Construction of Human SGLT1 Expression Vector
Human SGLT1 cDNA was amplified by PCR with a cDNA library derived from human small intestine (Clontech) as a template, synthetic DNA primers and KOD+ DNA Polymerase (Toyobo Co., Ltd., Japan). The amplified cDNA was inserted into pcRII-Topo vector by using a Topo TA Cloning Dual Promoter kit (Invitrogen). E. coli competent cells (Invitrogen, TOP10) were transformed with the plasmid vector, cultured in LB medium containing ampicillin (50 mg/L) to grow ampicillin-resistant clones. The plasmid vector containing human SGLT1 cDNA was purified from the clone in a standard manner (see Maniatis et al., Molecular Cloning). Human SGLT1 cDNA added restriction enzyme recognition sites (Eco RI at 5′-end, Hind III at 3′-end) was amplified by PCR with the plasmid vector as a template, synthetic DNA primers containing an additional restriction enzyme recognition site, and KOD+ DNA Polymerase. This amplified cDNA was digested with Eco RI and Hind III and ligated into expression vector pcDNA3.1(−) (Invitrogen) digested with Eco RI and Hind III by a Rapid DNA Ligation kit (Roche Diagonostics). E. coli competent cells (Invitrogen, DH5α) were transformed with the ligated expression vector and grown in ampicillin-containing LB medium. Human SGLT1 expression vector was purified from the ampicillin-resistant clone in a standard manner.
3) Establishment of Cell Lines Stably Expressing Human SGLT1 or Human SGLT2
The human SGLT1 expression vector or the human SGLT2 expression vector was digested with the restriction enzyme Pvu I and transfected into CHO-Kl cells with FuGENE (Roche Diagonostics). After the transfection, the cells were cultured at 37° C. in the presence of 5% CO2 for about 3 weeks in DMEM medium (Gibco) containing penicillin (50 U/mL, SIGMA), streptomycin (50 mg/L, SIGMA), geneticin (200 mg/L, Nacalai Tesque, Inc., Japan) and 20% fetal bovine serum to obtain geneticin-resistant clones. Among these clones, clones stably expressing human SGLT1 or human SGLT2 were selected by the evaluating the sodium-dependent uptake activity of sugar (methyl-α-D-glucopyranoside).
4) Evaluation of Inhibitory Activity Against methyl-α-D-glucopyranoside uptake
Cell lines stably expressing human SGLT1 or human SGLT2 CHO were seeded in 96-well culture plates at a density of 30000 to 40000 cells/well and cultured for 4 to 6 days. The medium in these plates was removed and replaced by 150 μL/well pretreatment buffer (i.e., a buffer containing 140 mM choline chloride, 2 mM potassium chloride, 1 mM calcium chloride, 1 mM magnesium chloride, 10 mM 2-[4-(2-hydroxyethyl)-1-piperazinyl]ethanesulfonic acid and tris(hydroxymethyl)aminomethane, pH 7.4), and the plates were incubated at 37° C. for 20 minutes. The pretreatment buffer in the plates was removed, replaced by 50 μL/well fresh pretreatment buffer, and the plates were incubated at 37° C. for 20 minutes. Methyl-α-D-(U—^14C)glucopyranoside (6.3 mL, Amersham Pharmacia Biotech, 200 mCi/L) was added to and mixed with 100 mL buffer (i.e., a buffer containing 140 mM sodium chloride, 2 mM potassium chloride, 1 mM calcium chloride, 1 mM magnesium chloride, 1 mM methyl-α-D-glucopyranoside, 10 mM [4-(2-hydroxyethyl)-1-piperazinyl]ethanesulfonic acid and tris(hydroxymethyl)aminomethane, pH 7.4), which was used as uptake buffer. Test compounds were dissolved into uptake buffer and these test compound solutions were used for evaluating inhibitory activity. Uptake buffer without a test compound was used as a control solution. Moreover, for use in measuring baseline uptake in the absence of sodium, sodium-free solution was prepared in the same manner to contain 140 mM choline chloride instead of sodium chloride. […]

Compound	pIC50
OC[C@H]1O[C@]2(OCc3cc(Cl)c(Cc4ccc(CCF)cc4)cc32)[C@H](O)[C@@H](O)[C@@H]1O [Example 8, (1S,3′R,4′S,5′S,6′R)-5-chloro-6-[(4-(2-fluoroethyl)phenyl)methyl]-3′,4′,5′,6′-tetrahydro-6′-(hydroxymethyl)-spiro[isobenzofuran-1(3H),2′-[2H]pyran]-3′,4′,5′-triol]	6.45
CCCc1ccc(Cc2cc3c(cc2Cl)CO[C@]32O[C@H](CO)[C@@H](O)[C@H](O)[C@H]2O)cc1 [Example 9, (1S,3′R,4′S,5′S,6′R)-5-chloro-3′,4′,5′,6′-tetrahydro-6′-(hydroxymethyl)-6-[(4-propylphenyl)methyl]-spiro[isobenzofuran-1(3H),2′-[2H]pyran]-3′,4′,5′-triol]	5.87
OC[C@H]1O[C@]2(OCc3cc(Cl)c(Cc4ccc5ccccc5c4)cc32)[C@H](O)[C@@H](O)[C@@H]1O [Example 7, (1S,3′R,4′S,5′S,6′R)-5-chloro-3′,4′,5′,6′-tetrahydro-6′-(hydroxymethyl)-6-(2-naphthylmethyl)-spiro[isobenzofuran-1(3H),2′-[2H]pyran]-3′,4′,5′-triol]	6.42
CCc1ccc(Cc2cc3c(cc2C)CO[C@]32O[C@H](CO)[C@@H](O)[C@H](O)[C@H]2O)cc1 [Comparative Compound 1, 1,1-anhydro-1-C-[5-(4-ethylphenyl)methyl-2-(hydroxymethyl)-4-methylphenyl]-β-glucopyranose, reference compound]	6.88
CC(C)c1ccc(Cc2cc3c(cc2Cl)CO[C@]32O[C@H](CO)[C@@H](O)[C@H](O)[C@H]2O)cc1 [Example 15, (1S,3′R,4′S,5′S,6′R)-5-chloro-3′,4′,5′,6′-tetrahydro-6′-(hydroxymethyl)-6-[(4-isopropylphenyl)methyl]-spiro[isobenzofuran-1(3H),2′-[2H]pyran]-3′,4′,5′-triol]	5.99
CCc1ccc(Cc2cc3c(cc2Cl)CO[C@]32O[C@H](CO)[C@@H](O)[C@H](O)[C@H]2O)cc1 [Example 1, (1S,3′R,4′S,5′S,6′R)-5-chloro-6-[(4-ethylphenyl)methyl]-3′,4′,5′,6′-tetrahydro-6′-(hydroxymethyl)-spiro[isobenzofuran-1(3H),2′-[2H]pyran]-3′,4′,5′-triol]	6.70
Cc1cc2c(cc1Cc1ccc(C(C)C)cc1)[C@]1(OC2)O[C@H](CO)[C@@H](O)[C@H](O)[C@H]1O [Example 21, (1S,3′R,4′S,5′S,6′R)-3′,4′,5′,6′-tetrahydro-6′-(hydroxymethyl)-6-[(4-isopropylphenyl)methyl]-5-methyl-spiro[isobenzofuran-1(3H),2′-[2H]pyran]-3′,4′,5′-triol]	6.17
CCOc1ccc(Cc2cc3c(cc2Cl)CO[C@]32O[C@H](CO)[C@@H](O)[C@H](O)[C@H]2O)cc1 [Example 5, (1S,3′R,4′S,5′S,6′R)-5-chloro-6-[(4-ethoxyphenyl)methyl]-3′,4′,5′,6′-tetrahydro-6′-(hydroxymethyl)-spiro[isobenzofuran-1(3H),2′-[2H]pyran]-3′,4′,5′-triol]	6.37
